Measurements from patent US5750104A, “High buffer-containing enteric coating digestive enzyme bile acid compositions and method of treating digestive disorders therewith” (Digestive Care Inc., priority 1996, dated 1998).

Legend:
pancreatic enzymes = assay: Compatibility and biological activity of pancreatic enzymes in acidic UDCA compositions; format: biochemical; settings: acidic form of UDCA
Excerpt: Pancreatic enzymes and salts of UDCA complement one another in the digestive system of a mammal. A dietary supplement containing both the enzymes and salts of UDCA would provide in a convenient pre-determined dose the remedy needed to treat the above-described diseased states. […] Lipase is especially affected by the low pH for the reasons that: […]

[1] = cited from earlier work

## C[C@H](CCC(=O)O)[C@H]1CC[C@H]2[C@@H]3[C@@H](O)C[C@@H]4C[C@H](O)CC[C@]4(C)[C@H]3CC[C@]12C [UDCA, ursodeoxycholic acid]
Pancreatic enzymes
  compatibility with pancreatic enzymes: incompatible with pancreatic enzymes
[1]; about 30 mg/kg of body weight, some patients
  benefit at higher dosage: limited benefits
[1]; human, in vivo
  effect on liver function: augmenting liver function
  undesirable side effects: severe diarrhea
[1]; patients having cystic fibrosis, hepatobiliary complications
  effect on nutritional state: improving the nutritional state
